Reference: patent US3962427A, “Antibiotic nebramycin factor VII” (Eli Lilly and Company, priority 1974, dated 1976)

Key:
Pseudomonas species = settings: cited from earlier work
[1] = system: Pseudomonas aeruginosa PI1; assay: Agar dilution MIC, Antibiotic Spectrum of Nebramycin VII; assay type: cell-based
[2] = system: Pseudomonas aeruginosa PI27; assay: as above; assay type: cell-based
Proteus rettgeri PR7 = assay: as above; assay type: cell-based
[3] = system: Pseudomonas aeruginosa PS14; assay: as above; assay type: cell-based
[4] = system: Pseudomonas aeruginosa PS34; assay: as above; assay type: cell-based
Proteus mirabilis PR11 = assay: as above; assay type: cell-based
Enterobacter cloacae EB8 = assay: as above; assay type: cell-based
Proteus mirabilis PR3 = assay: as above; assay type: cell-based
gram negative organisms = assay: Antibacterial activity of nebramycin VII in words; assay type: cell-based
[5] = system: Pseudomonas aeruginosa PI37; assay: Agar dilution MIC, Antibiotic Spectrum of Nebramycin VII; assay type: cell-based
Solubility = assay type: physicochemical
Proteus morganii PR15 = assay: Agar dilution MIC, Antibiotic Spectrum of Nebramycin VII; assay type: cell-based
Providencia sp. 439 = assay: as above; assay type: cell-based
[6] = system: Staphylococcus aureus 3055; assay: as above; settings: Staphylococcus aureus 3055, Penicillin G sensitive strain
[7] = system: Pseudomonas pseudomallei 121; assay type: cell-based; settings: agar dilution
[8] = system: Enterobater aerogenes EB2; assay: Agar dilution MIC, Antibiotic Spectrum of Nebramycin VII; assay type: cell-based
Serratia marcescens SE3 = assay: as above; assay type: cell-based
[9] = system: Pseudomonas aeruginosa PS10; assay: as above; assay type: cell-based
[10] = system: Staphylococcus aureus 3130; assay: as above; settings: Staphylococcus aureus 3130, Methicillin resistant strain
[11] = system: Streptococcus sp. (group D) 9901; assay: as above; assay type: cell-based
[12] = system: Staphylococcus aureus 3074; assay: as above; settings: Staphylococcus aureus 3074, Penicillin G resistant strain
Escherichia coli EC2 = assay: as above; assay type: cell-based
[13] = system: Pseudomonas aeruginosa PI21; assay: as above; assay type: cell-based
[14] = system: Enterobacter aerogenes EB4; assay: as above; assay type: cell-based
Pseudomonas cepacia 5629 = assay: as above; assay type: cell-based
[15] = system: Streptococcus sp. (group D) 9960; assay: as above; assay type: cell-based
[16] = system: Pseudomonas aeruginosa PI12; assay: as above; assay type: cell-based
Pseudomonas cepacia 3189 = assay: as above; assay type: cell-based
[17] = system: Pseudomonas aeruginosa PI24; assay: as above; assay type: cell-based
Proteus vulgaris PR27 = assay: as above; assay type: cell-based
Proteus rettgeri PR2 = assay: as above; assay type: cell-based
Escherichia coli EC8 = assay: as above; assay type: cell-based
[18] = system: Pseudomonas aeruginosa PS9; assay: as above; assay type: cell-based
[19] = system: Pseudomonas maltophilia 438; assay: as above; assay type: cell-based
[20] = system: Pseudomonas aeruginosa PI23; assay: as above; assay type: cell-based
[21] = system: Pseudomonas aeruginosa PS15; assay: Agar dilution MIC, Antibiotic Spectrum of Nebramycin VII; assay type: cell-based
Proteus vulgaris PR28 = assay: as above; assay type: cell-based
Enterobacter cloacae EB5 = assay: as above; assay type: cell-based
Proteus morganii PR1 = assay: as above; assay type: cell-based
[22] = system: Pseudomonas solanacearum X185; assay type: cell-based; settings: agar dilution

SMILES: CN[C@@H]1[C@@H](O[C@H]2O[C@H](CO)[C@@H](N)[C@H](O)[C@H]2O)OC2C[C@@H](N)[C@@H](O[C@H]3[C@H](O)[C@@H](O)[C@H](N)C[C@@H]3N)OC2[C@@H]1O (some centres unmarked) [Nebramycin II]
- antibiotic activity against Pseudomonas species (Pseudomonas species): antibiotic activity

SMILES: CN[C@@H]1[C@@H](O[C@H]2O[C@H](CO)[C@@H](N)[C@H](O)[C@H]2O)O[C@H]2[C@H](O)[C@@H](N)[C@@H](O[C@H]3[C@H](O)[C@@H](O)[C@H](N)C[C@@H]3N)O[C@@H]2[C@@H]1O [Nebramycin VII]
- Minimum Inhibitory Concentration [1]: 64 µg/mL
- Minimum Inhibitory Concentration [2]: 64 µg/mL
- Minimum Inhibitory Concentration (Proteus rettgeri PR7): 16 µg/mL
- Minimum Inhibitory Concentration [3]: 8 µg/mL
- Minimum Inhibitory Concentration [4]: 4 µg/mL
- Minimum Inhibitory Concentration (Proteus mirabilis PR11): 16 µg/mL
- Minimum Inhibitory Concentration (Enterobacter cloacae EB8): 8 µg/mL
- Minimum Inhibitory Concentration (Proteus mirabilis PR3): 8 µg/mL
- activity against the gram negative organisms (gram negative organisms): high degree of activity
- Minimum Inhibitory Concentration [5]: > 256 µg/mL
- solubility in the higher alcohols and most common organic solvents (Solubility; higher alcohols and most common organic solvents): substantially insoluble
- solubility in methanol (Solubility; methanol): slightly soluble
- solubility in water (Solubility; water): water soluble
- Minimum Inhibitory Concentration (Proteus morganii PR15): 32 µg/mL
- Minimum Inhibitory Concentration (Providencia sp. 439): 32 µg/mL
- Minimum Inhibitory Concentration [6]: 8 µg/mL
- Minimum Inhibitory Concentration [7]: 32 µg/mL
- Minimum Inhibitory Concentration [8]: 8 µg/mL
- Minimum Inhibitory Concentration (Serratia marcescens SE3): 8 µg/mL
- Minimum Inhibitory Concentration [9]: 8 µg/mL
- Minimum Inhibitory Concentration [10]: 4 µg/mL
- Minimum Inhibitory Concentration [11]: > 256 µg/mL
- Minimum Inhibitory Concentration [12]: 4 µg/mL
- Minimum Inhibitory Concentration (Escherichia coli EC2): 16 µg/mL
- Minimum Inhibitory Concentration [13]: > 256 µg/mL
- Minimum Inhibitory Concentration [14]: 8 µg/mL
- Minimum Inhibitory Concentration (Pseudomonas cepacia 5629): 128 µg/mL
- Minimum Inhibitory Concentration [15]: 128 µg/mL
- Minimum Inhibitory Concentration [16]: 16 µg/mL
- Minimum Inhibitory Concentration (Pseudomonas cepacia 3189): 256 µg/mL
- Minimum Inhibitory Concentration [17]: 256 µg/mL
- Minimum Inhibitory Concentration (Proteus vulgaris PR27): 8 µg/mL
- Minimum Inhibitory Concentration (Proteus rettgeri PR2): 32 µg/mL
- Minimum Inhibitory Concentration (Escherichia coli EC8): 16 µg/mL
- Minimum Inhibitory Concentration [18]: 16 µg/mL
- Minimum Inhibitory Concentration [19]: 16 µg/mL
- Minimum Inhibitory Concentration [20]: > 256 µg/mL
- toxicity (Toxicity in words): relatively non-toxic
- Minimum Inhibitory Concentration [21]: 8 µg/mL
- Minimum Inhibitory Concentration (Proteus vulgaris PR28): 8 µg/mL
- Minimum Inhibitory Concentration (Enterobacter cloacae EB5): 8 µg/mL
- Minimum Inhibitory Concentration (Proteus morganii PR1): 8 µg/mL
- Minimum Inhibitory Concentration [22]: 4 µg/mL
